{"source": "patent US12048682B2", "about": "“Combination of micheliolide derivatives or nanoparticles with ionizing radiation and checkpoint inhibitors for cancer therapy” (The University of Chicago, priority 2018, dated 2024)", "key": {"glioma GL261 tumor model [1]": {"system": "glioma GL261 tumor model", "test": "In vivo antitumor activity, glioma GL261 tumor model on wildtype C57BL/6 mice (irradiation and PD-L1 antibody combination)", "protocol": "The combination of DMAMCL, irradiation, and PD-L1 antibody was evaluated on the glioma GL261 tumor model on wildtype C57BL/6 mice. The treatment began 14 days after the inoculation of 2×10^6 GL261 cells. The mice were orally dosed with 50 mg/kg DMAMCL or PBS daily and irradiated with 2 Gy irradiation approximately 4 hrs after dosing, as applicable, for up to 12 days, starting when the tumors reached ˜150 mm^3-200 mm^3. One group of mice received two doses of 75 μg PD-L1 antibody on days 0 and 4. […] By the cessation of treatment, 3/5 tumors treated with this combination were barely palpable."}, "glioma GL261 tumor model [2]": {"system": "glioma GL261 tumor model", "test": "In vivo antitumor activity, glioma GL261 tumor model on immunocompromised Rag2-/- C57BL/6 mice", "protocol": "The combination of […] and irradiation was evaluated on the glioma GL261 tumor model on immunocompromised Rag2^-/- C57BL/6 mice. The mice were orally dosed with 50 mg/kg […] or PBS daily and irradiated with 4 Gy irradiation approximately 4 hrs after dosing, as applicable, for up to 7 days, starting when the tumors reached about […]. A Precision X-ray X-RAD 225 Image Guided Biologic Irradiator (Precision X-Ray Irradiation, North Branford, Connecticut, United States of America) was used for all animal studies. The instrument was set at 225 peak kilovoltage (kVp) and 13 milliampere (mA), with a 0.3 mm flat-board copper (Cu) filter installed before a 15-mm collimator. The irradiation was given in two successive fractions with incident angles of 0° and 180° for each mouse."}, "GL261 cells": {"system": "GL261 cells", "test": "In vitro cytotoxicity against glioma cells GL261 (MTS assay), with or without X-ray irradiation", "type": "cell-based, mouse", "protocol": "GL261 cells were seeded onto 96-well plates at a density of 2000 cells/well and treated with various concentrations of the dimethylamino Michael adduct of MCL (dimethylamino micheliolide, […]) for 24 hours to allow for sufficient cellular uptake and conversion to MCL before irradiation. The cells were irradiated with varying amounts of X-ray irradiation and then incubated for an additional 24 hours. The culture medium was exchanged with fresh medium and further incubated for an additional 48 hours. The cell viability was then detected by (3-(4,5-dimethylthiazol-2-yl)-5-(3-carboxymethoxyphenyl)-2-(4-sulfophenyl)-2H-tetrazolium) (MTS) assay (Promega, Madison, Wisconsin, United States of America)."}}}
{"smiles": "CC1=C2CC[C@@](C)(O)[C@@H]2[C@H]2OC(=O)[C@@H](CN(C)C)[C@@H]2CC1", "note": "[DMAMCL, dimethylamino micheliolide]", "values": [{"measurement": "tumor growth", "setting": "glioma GL261 tumor model [1]; DMAMCL 50 mg/kg oral daily plus 2 Gy irradiation plus 75 μg PD-L1 antibody on days 0 and 4, wildtype C57BL/6 mice", "result": "controlled and regressed tumor growth immediately after treatment"}, {"measurement": "tumor growth", "setting": "glioma GL261 tumor model [1]; DMAMCL 50 mg/kg oral daily plus 2 Gy irradiation, up to 12 days, wildtype C57BL/6 mice", "result": "suppressed tumor growth and ultimately led to tumor regression"}, {"measurement": "tumor growth", "setting": "glioma GL261 tumor model [1]; DMAMCL alone, 50 mg/kg oral daily up to 12 days, wildtype C57BL/6 mice", "result": "no effect on tumor growth"}, {"measurement": "tumors barely palpable by the cessation of treatment", "setting": "glioma GL261 tumor model [1]; DMAMCL plus 2 Gy irradiation plus PD-L1 antibody, wildtype C57BL/6 mice", "result": "3/5"}, {"measurement": "tumor growth", "setting": "glioma GL261 tumor model [2]; DMAMCL 50 mg/kg oral daily plus 4 Gy irradiation about 4 hrs after dosing, up to 7 days", "result": "successfully controlled tumor growth"}, {"measurement": "tumor growth", "setting": "glioma GL261 tumor model [2]; DMAMCL alone, 50 mg/kg oral daily up to 7 days", "result": "initially suppressed tumor growth"}, {"measurement": "tumor size compared to irradiation alone", "setting": "glioma GL261 tumor model [2]; DMAMCL alone, 50 mg/kg oral daily up to 7 days, final tumor size", "result": "not significantly different in size"}, {"measurement": "cytotoxicity (cell viability)", "setting": "GL261 cells; 1 μM DMAMCL and X-ray irradiation of 8 Gy", "result": "significant cytotoxicity"}, {"measurement": "cytotoxicity (cell viability)", "setting": "GL261 cells; 10 μM DMAMCL and X-ray irradiation of 8 Gy", "result": "significant cytotoxicity"}, {"measurement": "toxicity (cell viability)", "setting": "GL261 cells; DMAMCL monotherapy, doses up to 10 μM, no irradiation", "result": "little to no toxicity"}]}
